Assay results reported in US20260041667A1 (priority 2021, published 2026).

Experiments:
Sprague Dawley rats = assay: 14-day repeat-dose intranasal toxicity and toxicokinetic study in rats (Study 700041); details: rat
[1] = target: hERG potassium channel current (IKr) (Homo sapiens, UniProt Q12809); details: Phase 1, 30 μM in protein free perfusate, n=3
Source text: This assay is employed as a screen to assess potential risks for QT interval prolongation.

Beagle dogs = assay: 14-day repeat-dose intranasal toxicity and toxicokinetic study in dogs (Study 62959); assay type: in vivo; details: dog
Experimental: Assessments of mortality, clinical signs, olfactory reflex, body weights, food consumption, ophthalmology, and electrocardiograms were performed.

[2] = intranasal 5 mg/kg/day, Day 1, Female
[3] = intranasal 5 mg/kg/day, Day 1, Male
[4] = intranasal 5 mg/kg/day, Day 14, Female
[5] = intranasal 5 mg/kg/day, Day 14, Male
[6] = intranasal 20 mg/kg/day, Day 1, Female
[7] = intranasal 20 mg/kg/day, Day 1, Male
[8] = intranasal 20 mg/kg/day, Day 14, Female
[9] = intranasal 20 mg/kg/day, Day 14, Male
[10] = intranasal 75 mg/kg/day, Day 1, Female
[11] = intranasal 75 mg/kg/day, Day 1, Male
[12] = intranasal 75 mg/kg/day, Day 14, Female
[13] = intranasal 75 mg/kg/day, Day 14, Male
[14] = intranasal 0.4 mg/kg/day, Day 1, Female
[15] = intranasal 0.4 mg/kg/day, Day 1, Male
[16] = intranasal 0.4 mg/kg/day, Day 14, Female
[17] = intranasal 0.4 mg/kg/day, Day 14, Male
[18] = intranasal 0.8 mg/kg/day, Day 1, Male
[19] = intranasal 0.8 mg/kg/day, Day 14, Male

Sequence of hERG potassium channel current (IKr) (Q12809 whole entry): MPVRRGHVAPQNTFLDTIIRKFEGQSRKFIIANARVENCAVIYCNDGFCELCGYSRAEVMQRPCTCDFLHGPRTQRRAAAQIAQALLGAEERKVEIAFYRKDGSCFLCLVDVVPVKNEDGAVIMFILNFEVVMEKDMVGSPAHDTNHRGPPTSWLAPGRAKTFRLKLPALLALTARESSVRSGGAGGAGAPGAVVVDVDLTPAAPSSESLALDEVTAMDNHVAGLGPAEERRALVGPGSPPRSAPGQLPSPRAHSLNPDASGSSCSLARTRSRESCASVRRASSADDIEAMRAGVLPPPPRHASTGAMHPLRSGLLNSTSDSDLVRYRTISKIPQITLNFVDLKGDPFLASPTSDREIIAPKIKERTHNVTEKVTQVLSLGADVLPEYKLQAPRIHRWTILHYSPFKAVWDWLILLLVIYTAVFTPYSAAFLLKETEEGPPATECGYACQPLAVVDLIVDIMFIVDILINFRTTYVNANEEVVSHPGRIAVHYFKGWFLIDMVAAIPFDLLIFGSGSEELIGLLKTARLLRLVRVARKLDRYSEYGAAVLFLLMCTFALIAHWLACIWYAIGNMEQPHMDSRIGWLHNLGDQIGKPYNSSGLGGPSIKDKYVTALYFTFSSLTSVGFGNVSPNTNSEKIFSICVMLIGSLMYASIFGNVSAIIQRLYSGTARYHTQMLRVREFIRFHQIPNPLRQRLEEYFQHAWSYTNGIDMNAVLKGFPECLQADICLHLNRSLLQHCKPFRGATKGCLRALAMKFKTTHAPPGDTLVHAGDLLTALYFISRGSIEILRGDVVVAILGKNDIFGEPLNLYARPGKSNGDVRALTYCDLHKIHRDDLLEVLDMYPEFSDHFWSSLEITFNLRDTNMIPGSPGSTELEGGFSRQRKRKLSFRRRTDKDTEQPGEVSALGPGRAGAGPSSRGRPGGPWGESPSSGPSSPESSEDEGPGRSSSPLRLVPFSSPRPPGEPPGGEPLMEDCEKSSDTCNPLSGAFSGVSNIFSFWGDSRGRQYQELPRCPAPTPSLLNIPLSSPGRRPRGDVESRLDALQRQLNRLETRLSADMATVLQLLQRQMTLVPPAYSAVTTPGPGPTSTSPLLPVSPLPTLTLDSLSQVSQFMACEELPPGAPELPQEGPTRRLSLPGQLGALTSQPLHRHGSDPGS

For COc1ccc2[nH]cc(CCN(C)C)c2c1 [Compound 5-MeO-DMT, 5-methoxy-N,N-dimethyltryptamine], the “AUC0-Tlast [SE]” value (Sprague Dawley rats; [2]) was 53.2 [15.9] h*ng/mL, the “AUCINF—obs” value (Sprague Dawley rats; [2]) was “(53.7) h*ng/mL” and the “Cmax [SE]” value (Sprague Dawley rats; [2]) was 186 [98.7] ng/mL. The Tmax (Sprague Dawley rats; [2]) was 9.96 min, the “AUC0-Tlast [SE]” value (Sprague Dawley rats; [3]) was 39.9 [7.35] h*ng/mL and the “AUCINF—obs” value (Sprague Dawley rats; [3]) was “(40.1) h*ng/mL”. For the same compound, the “Cmax [SE]” value (Sprague Dawley rats; [3]) was 191 [45.6] ng/mL, the “AUC0-Tlast [SE]” value (Sprague Dawley rats; [4]) was 63.8 [4.55] h*ng/mL and the “AUCINF—obs” value (Sprague Dawley rats; [4]) was “(64.0) h*ng/mL”. For the same compound, the “Cmax [SE]” value (Sprague Dawley rats; [4]) was 645 [106] ng/mL, the t1/2 (Sprague Dawley rats; [4]) was 6.78 min and the “AUC0-Tlast [SE]” value (Sprague Dawley rats; [5]) was 114 [13.8] h*ng/mL. For the same compound, the “AUCINF—obs” value (Sprague Dawley rats; [5]) was “(115) h*ng/mL”, the “Cmax [SE]” value (Sprague Dawley rats; [5]) was 627 [102] ng/mL and the “AUC0-Tlast [SE]” value (Sprague Dawley rats; [6]) was 198 [15.2] h*ng/mL. The “AUCINF—obs” value (Sprague Dawley rats; [6]) was “(198) h*ng/mL”, the “Cmax [SE]” value (Sprague Dawley rats; [6]) was 679 [162] ng/mL and the “AUC0-Tlast [SE]” value (Sprague Dawley rats; [7]) was 420 [62.1] h*ng/mL. For the same compound, the “AUCINF—obs” value (Sprague Dawley rats; [7]) was “(421) h*ng/mL”, the “Cmax [SE]” value (Sprague Dawley rats; [7]) was 4190 [1040] ng/mL and the t1/2 (Sprague Dawley rats; [7]) was 7.5 min. The “AUC0-Tlast [SE]” value (Sprague Dawley rats; [8]) was 169 [21.2] h*ng/mL, the “AUCINF—obs” value (Sprague Dawley rats; [8]) was “(169) h*ng/mL” and the “Cmax [SE]” value (Sprague Dawley rats; [8]) was 795 [115] ng/mL. The “AUC0-Tlast [SE]” value (Sprague Dawley rats; [9]) was 133 [57.2] h*ng/mL, the “AUCINF—obs” value (Sprague Dawley rats; [9]) was “(133) h*ng/mL” and the “Cmax [SE]” value (Sprague Dawley rats; [9]) was 1200 [857] ng/mL. The “AUC0-Tlast [SE]” value (Sprague Dawley rats; [10]) was 228 [49.7] h*ng/mL, the “AUCINF—obs” value (Sprague Dawley rats; [10]) was “(228) h*ng/mL” and the “Cmax [SE]” value (Sprague Dawley rats; [10]) was 1310 [802] ng/mL. The t1/2 (Sprague Dawley rats; [10]) was 9.36 min, the “AUC0-Tlast [SE]” value (Sprague Dawley rats; [11]) was 1030 [114] h*ng/mL and the “AUCINF—obs” value (Sprague Dawley rats; [11]) was “(1040) h*ng/mL”. For the same compound, the “Cmax [SE]” value (Sprague Dawley rats; [11]) was 7010 [1010] ng/mL, the “AUC0-Tlast [SE]” value (Sprague Dawley rats; [12]) was 155 [53.8] h*ng/mL and the “AUCINF—obs” value (Sprague Dawley rats; [12]) was “(156) h*ng/mL”. The “Cmax [SE]” value (Sprague Dawley rats; [12]) was 870 [361] ng/mL, the t1/2 (Sprague Dawley rats; [12]) was 7.8 min and the “AUC0-Tlast [SE]” value (Sprague Dawley rats; [13]) was 391 [228] h*ng/mL. The “AUCINF—obs” value (Sprague Dawley rats; [13]) was “(392) h*ng/mL”, the “Cmax [SE]” value (Sprague Dawley rats; [13]) was 3290 [2510] ng/mL and the t1/2 (Sprague Dawley rats; [13]) was 6.96 min. The “Inhibition of hERG potassium ion current” value [1] was 77.8±7.4%, the AUC0-Tlast (Beagle dogs; [14]) was 104 ng·h/mL and the “AUCINF—obs” value (Beagle dogs; [14]) was 106 ng·h/mL. For the same compound, the t1/2 (Beagle dogs; [14]) was 18.7 min, the AUC0-Tlast (Beagle dogs; [15]) was 77.9 ng·h/mL and the “AUCINF—obs” value (Beagle dogs; [15]) was 80.9 ng·h/mL. The t1/2 (Beagle dogs; [15]) was 34.3 min, the AUC0-Tlast (Beagle dogs; [16]) was 86.4 ng·h/mL and the “AUCINF—obs” value (Beagle dogs; [16]) was 95.9 ng·h/mL. The Cmax (Beagle dogs; [16]) was 196 ng/mL, the AUC0-Tlast (Beagle dogs; [17]) was 70.6 ng·h/mL and the “AUCINF—obs” value (Beagle dogs; [17]) was 77.7 ng·h/mL. The Cmax (Beagle dogs; [17]) was 285 ng/mL, the AUC0-Tlast (Beagle dogs; [18]) was 152 ng·h/mL and the Cmax (Beagle dogs; [18]) was 300 ng/mL. It also gave a t1/2 (Beagle dogs; [18]) of 35.7 min, a t1/2 (Beagle dogs; intranasal 0.8 mg/kg/day, Day 14, Female) of 95.4 min and an AUC0-Tlast (Beagle dogs; [19]) of 298 ng·h/mL. For the same compound, the “AUCINF—obs” value (Beagle dogs; [19]) was 322 ng·h/mL, the Cmax (Beagle dogs; [19]) was 411 ng/mL and the t1/2 (Beagle dogs; [19]) was 79.2 min.
